Results: paper PMC7614683, “A small molecule PI3Kα activator for cardioprotection and neuroregeneration” (Nature, 2023)
Read-outs that look alike come from different tables or passages of the source.

What was measured:
Assay in all cases: SelectScreen Z-LYTE kinase activity assay (SI Table 6)
Assay type in all cases: biochemical
[1] = target: protein kinases of the Z-LYTE panel (Homo sapiens, UniProt P04049, Y340D/Y341D); conditions: RAF1 (cRAF) Y340D Y341D, 1000 nM, [ATP] 100 μM
Procedure: (§1) 133 protein kinases and 7 lipid kinases were counterscreened, with 1938 used at 1 μM, using the Adapta, Lantha and Z-LYTE assays (SelectScreen Kinase Profiling Service; Thermofisher – experimental details of these assays can be found here: https://www.thermofisher.com/uk/en/home/industrial/pharma-biopharma/drug-discovery-development/target-and-lead-identification-and-validation/kinasebiology/kinase-activity-assays.html. The tree represention in KinMap[59] generated courtesy of Cell Signaling Technology, Inc. (www.cellsignal.com). mTORC1 (mTOR/RAPTOR/LST8) protein complex and ATM kinase and substrates were produced as previously described[57],[60]. Screening of 1938 was conducted using SuperSep Phos-Tag 50 μmol/l 100 x 100 x 6.6 mm 17-well (192-18001/199-18011) gels. For ATM assays, 100 nM ATM was incubated for 30 min at 30°C with 5 μM GST-p53 and 1 mM ATP, in the absence or presence of 200 μM 1938 in ATM Kinase Buffer (50 mM HEPES pH 7.5, 100 mM NaCl, 10% glycerol, 2 mM […], 5 mM MgCl2). As a positive control for ATM activation, the same reaction was carried out with 100 nM ATM/5 μM GST-p53/1 mM ATP in the presence of 100 nM Mre11-Rad50-Nbs1 (MRN) complex, a known activator of ATM[61]. For mTORC1 assays, 50 nM mTORC1 complex (mTOR/LST8/RAPTOR) was incubated for 3 h at 30°C with 15 μM 4E-BP1, 10 mM MgCl2 and 250 μM ATP, in the absence or presence of 200 μM 1938. As a ‘positive’ control, a higher concentration (150 nM) of mTORC1 complex (mTOR/LST8/RAPTOR) was incubated for 3 h at 30°C with 15 μM 4E-BP1, 10 mM MgCl2 and 250 μM ATP. Kinase reactions were quenched by addition of SDS-PAGE Loading Buffer (as per manufacturer’s instructions) and freezing at -20°C before being run on the Phos-tag gels at 150 V for 90 min. Gels were then stained using InstantBlue™ Coomassie, and quantified using BioRad Image Lab Software. Kinase assays were carried out in triplicate.

[2] = target: T1, protein kinases of the Z-LYTE panel (Homo sapiens, UniProt P43403)
T1 sequence (P43403 1-619): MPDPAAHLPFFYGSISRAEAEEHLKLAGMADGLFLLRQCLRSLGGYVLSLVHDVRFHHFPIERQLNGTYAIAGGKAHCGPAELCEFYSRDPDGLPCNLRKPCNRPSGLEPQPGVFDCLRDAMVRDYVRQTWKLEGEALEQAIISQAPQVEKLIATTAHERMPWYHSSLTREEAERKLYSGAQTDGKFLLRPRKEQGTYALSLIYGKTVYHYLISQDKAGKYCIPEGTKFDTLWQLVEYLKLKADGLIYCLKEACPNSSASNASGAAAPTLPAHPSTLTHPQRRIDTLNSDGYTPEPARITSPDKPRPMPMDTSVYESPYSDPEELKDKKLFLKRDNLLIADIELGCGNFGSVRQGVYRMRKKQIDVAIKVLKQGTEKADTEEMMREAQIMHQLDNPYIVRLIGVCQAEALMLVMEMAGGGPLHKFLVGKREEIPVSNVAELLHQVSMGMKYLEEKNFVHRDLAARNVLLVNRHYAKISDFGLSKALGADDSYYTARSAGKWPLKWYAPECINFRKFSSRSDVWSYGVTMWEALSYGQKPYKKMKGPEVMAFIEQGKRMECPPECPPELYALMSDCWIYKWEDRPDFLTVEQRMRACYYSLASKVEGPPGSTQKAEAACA
Procedure: as §1

[3] = target: protein kinases of the Z-LYTE panel (Homo sapiens, UniProt P04626)
Procedure: as §1

[4] = target: protein kinases of the Z-LYTE panel (Homo sapiens, UniProt P49759)
Procedure: as §1

[5] = target: T2, protein kinases of the Z-LYTE panel (Homo sapiens, UniProt Q8IW41)
T2 sequence (Q8IW41 1-473): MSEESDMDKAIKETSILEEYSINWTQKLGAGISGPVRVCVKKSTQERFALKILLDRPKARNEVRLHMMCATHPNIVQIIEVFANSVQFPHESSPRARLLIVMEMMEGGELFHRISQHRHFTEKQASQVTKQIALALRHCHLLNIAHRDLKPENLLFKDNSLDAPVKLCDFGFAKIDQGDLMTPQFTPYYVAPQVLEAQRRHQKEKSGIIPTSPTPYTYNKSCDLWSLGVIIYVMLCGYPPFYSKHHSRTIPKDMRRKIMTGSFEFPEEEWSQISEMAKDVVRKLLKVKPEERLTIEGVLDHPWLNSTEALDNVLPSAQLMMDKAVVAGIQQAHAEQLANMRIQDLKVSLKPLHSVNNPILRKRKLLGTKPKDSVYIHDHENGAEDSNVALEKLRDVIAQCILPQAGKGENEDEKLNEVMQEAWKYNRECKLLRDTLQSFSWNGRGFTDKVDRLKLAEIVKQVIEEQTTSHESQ
Procedure: as §1

[6] = target: protein kinases of the Z-LYTE panel (Homo sapiens, UniProt P19784)
Procedure: as §1

[7] = target: protein kinases of the Z-LYTE panel (Homo sapiens, UniProt Q13153)
Procedure: as §1

[8] = target: protein kinases of the Z-LYTE panel (Homo sapiens, UniProt P08069)
Procedure: as §1

[9] = target: protein kinases of the Z-LYTE panel (Homo sapiens, UniProt Q16288)
Procedure: as §1

Sequence of protein kinases of the Z-LYTE panel (Homo sapiens, UniProt Q16288) (Q16288 32-839): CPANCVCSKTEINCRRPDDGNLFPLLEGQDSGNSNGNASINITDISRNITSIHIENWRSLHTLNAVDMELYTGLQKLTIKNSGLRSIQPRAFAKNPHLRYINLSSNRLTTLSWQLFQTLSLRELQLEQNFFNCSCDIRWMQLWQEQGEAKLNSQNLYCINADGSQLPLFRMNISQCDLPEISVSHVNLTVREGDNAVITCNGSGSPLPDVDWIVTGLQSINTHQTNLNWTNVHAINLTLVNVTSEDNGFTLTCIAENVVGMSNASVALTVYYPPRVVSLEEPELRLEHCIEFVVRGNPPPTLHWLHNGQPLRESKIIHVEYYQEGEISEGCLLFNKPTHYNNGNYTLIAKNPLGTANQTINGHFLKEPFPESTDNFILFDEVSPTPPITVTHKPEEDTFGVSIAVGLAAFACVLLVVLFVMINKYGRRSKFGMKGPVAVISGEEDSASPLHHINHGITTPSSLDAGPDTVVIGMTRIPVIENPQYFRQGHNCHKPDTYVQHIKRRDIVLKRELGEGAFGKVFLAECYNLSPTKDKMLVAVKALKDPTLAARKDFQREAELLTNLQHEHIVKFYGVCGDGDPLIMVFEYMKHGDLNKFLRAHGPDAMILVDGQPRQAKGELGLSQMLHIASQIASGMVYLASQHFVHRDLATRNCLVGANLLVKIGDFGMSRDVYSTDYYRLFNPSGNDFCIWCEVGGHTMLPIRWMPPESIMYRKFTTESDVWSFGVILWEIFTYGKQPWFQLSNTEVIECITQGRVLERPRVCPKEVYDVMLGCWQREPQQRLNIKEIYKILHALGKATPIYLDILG
Sequence of protein kinases of the Z-LYTE panel (Homo sapiens, UniProt Q13153) (Q13153 whole entry): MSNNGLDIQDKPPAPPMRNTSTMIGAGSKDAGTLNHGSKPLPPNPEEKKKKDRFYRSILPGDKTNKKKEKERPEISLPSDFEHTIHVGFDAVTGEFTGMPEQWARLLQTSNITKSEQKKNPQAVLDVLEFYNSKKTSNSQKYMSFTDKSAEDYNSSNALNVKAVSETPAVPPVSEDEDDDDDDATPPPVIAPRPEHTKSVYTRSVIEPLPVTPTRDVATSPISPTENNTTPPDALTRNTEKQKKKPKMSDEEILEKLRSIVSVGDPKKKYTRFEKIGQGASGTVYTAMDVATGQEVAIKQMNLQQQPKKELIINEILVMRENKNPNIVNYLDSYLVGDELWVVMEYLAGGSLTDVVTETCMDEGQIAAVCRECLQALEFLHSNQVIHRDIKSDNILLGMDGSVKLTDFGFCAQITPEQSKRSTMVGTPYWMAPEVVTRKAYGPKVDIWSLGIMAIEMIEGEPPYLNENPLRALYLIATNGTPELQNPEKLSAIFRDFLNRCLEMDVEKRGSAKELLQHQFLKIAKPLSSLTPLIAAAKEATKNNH
Sequence of protein kinases of the Z-LYTE panel (Homo sapiens, UniProt P08069) (P08069 31-1367): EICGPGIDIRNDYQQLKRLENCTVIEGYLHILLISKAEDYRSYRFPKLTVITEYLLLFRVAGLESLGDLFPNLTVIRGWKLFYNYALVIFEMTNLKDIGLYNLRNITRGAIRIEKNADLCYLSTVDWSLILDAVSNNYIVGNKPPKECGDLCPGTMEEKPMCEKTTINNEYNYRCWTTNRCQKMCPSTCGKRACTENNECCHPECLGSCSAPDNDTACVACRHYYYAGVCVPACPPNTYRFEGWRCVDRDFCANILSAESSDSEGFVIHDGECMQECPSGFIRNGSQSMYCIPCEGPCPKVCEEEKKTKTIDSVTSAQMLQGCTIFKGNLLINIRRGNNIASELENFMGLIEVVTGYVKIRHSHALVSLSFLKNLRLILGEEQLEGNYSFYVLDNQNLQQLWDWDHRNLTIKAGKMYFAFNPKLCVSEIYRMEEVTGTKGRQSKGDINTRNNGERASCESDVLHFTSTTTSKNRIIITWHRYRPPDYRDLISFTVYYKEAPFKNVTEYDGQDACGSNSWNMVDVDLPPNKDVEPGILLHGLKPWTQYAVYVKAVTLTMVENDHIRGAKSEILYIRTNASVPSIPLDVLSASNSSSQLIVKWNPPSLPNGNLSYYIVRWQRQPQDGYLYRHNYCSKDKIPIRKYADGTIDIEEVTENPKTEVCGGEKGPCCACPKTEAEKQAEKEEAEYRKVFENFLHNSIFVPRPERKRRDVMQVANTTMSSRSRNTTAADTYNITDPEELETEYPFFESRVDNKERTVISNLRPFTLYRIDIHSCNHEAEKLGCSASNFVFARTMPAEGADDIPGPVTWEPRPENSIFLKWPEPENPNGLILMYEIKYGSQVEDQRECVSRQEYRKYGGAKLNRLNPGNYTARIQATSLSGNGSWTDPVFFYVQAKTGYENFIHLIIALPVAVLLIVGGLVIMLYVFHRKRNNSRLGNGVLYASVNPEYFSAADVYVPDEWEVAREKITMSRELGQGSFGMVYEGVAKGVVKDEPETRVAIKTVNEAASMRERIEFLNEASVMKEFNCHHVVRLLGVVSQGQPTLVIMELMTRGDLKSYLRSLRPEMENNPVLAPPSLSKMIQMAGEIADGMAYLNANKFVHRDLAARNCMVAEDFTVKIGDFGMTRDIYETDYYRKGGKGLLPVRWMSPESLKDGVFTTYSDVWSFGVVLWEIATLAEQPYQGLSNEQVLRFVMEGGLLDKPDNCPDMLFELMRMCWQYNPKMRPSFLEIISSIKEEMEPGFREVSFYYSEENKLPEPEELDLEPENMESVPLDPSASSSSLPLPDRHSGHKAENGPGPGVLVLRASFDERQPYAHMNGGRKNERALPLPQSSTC
Sequence of protein kinases of the Z-LYTE panel (Homo sapiens, UniProt P04049, Y340D/Y341D) (P04049 whole entry Y340D/Y341D): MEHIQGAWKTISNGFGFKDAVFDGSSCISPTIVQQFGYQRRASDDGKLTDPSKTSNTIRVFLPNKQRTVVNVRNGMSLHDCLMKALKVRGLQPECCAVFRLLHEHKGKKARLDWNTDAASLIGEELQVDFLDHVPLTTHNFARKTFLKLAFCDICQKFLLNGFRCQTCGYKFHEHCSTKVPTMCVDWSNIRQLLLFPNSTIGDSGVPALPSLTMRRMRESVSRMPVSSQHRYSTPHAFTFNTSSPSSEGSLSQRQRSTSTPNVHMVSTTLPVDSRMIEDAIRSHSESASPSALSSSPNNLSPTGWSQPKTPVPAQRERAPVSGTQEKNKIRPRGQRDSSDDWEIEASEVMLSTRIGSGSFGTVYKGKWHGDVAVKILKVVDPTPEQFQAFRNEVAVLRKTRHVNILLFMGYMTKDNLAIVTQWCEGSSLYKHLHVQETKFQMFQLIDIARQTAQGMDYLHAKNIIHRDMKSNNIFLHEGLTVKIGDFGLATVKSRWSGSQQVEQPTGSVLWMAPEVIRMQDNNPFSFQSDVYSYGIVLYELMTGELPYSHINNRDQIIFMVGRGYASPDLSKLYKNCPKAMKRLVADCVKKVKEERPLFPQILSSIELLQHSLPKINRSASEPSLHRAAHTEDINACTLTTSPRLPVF
Sequence of protein kinases of the Z-LYTE panel (Homo sapiens, UniProt P19784) (P19784 whole entry): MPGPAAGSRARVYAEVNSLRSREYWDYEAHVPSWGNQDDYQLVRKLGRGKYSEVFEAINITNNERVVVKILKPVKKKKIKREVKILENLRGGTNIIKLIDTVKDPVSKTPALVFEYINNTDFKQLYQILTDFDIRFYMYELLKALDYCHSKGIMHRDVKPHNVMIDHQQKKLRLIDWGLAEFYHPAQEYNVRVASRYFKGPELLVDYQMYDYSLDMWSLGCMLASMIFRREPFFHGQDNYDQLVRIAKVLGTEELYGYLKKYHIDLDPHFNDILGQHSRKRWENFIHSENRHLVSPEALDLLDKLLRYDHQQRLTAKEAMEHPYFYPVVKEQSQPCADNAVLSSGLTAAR
Sequence of protein kinases of the Z-LYTE panel (Homo sapiens, UniProt P04626) (P04626 23-1255): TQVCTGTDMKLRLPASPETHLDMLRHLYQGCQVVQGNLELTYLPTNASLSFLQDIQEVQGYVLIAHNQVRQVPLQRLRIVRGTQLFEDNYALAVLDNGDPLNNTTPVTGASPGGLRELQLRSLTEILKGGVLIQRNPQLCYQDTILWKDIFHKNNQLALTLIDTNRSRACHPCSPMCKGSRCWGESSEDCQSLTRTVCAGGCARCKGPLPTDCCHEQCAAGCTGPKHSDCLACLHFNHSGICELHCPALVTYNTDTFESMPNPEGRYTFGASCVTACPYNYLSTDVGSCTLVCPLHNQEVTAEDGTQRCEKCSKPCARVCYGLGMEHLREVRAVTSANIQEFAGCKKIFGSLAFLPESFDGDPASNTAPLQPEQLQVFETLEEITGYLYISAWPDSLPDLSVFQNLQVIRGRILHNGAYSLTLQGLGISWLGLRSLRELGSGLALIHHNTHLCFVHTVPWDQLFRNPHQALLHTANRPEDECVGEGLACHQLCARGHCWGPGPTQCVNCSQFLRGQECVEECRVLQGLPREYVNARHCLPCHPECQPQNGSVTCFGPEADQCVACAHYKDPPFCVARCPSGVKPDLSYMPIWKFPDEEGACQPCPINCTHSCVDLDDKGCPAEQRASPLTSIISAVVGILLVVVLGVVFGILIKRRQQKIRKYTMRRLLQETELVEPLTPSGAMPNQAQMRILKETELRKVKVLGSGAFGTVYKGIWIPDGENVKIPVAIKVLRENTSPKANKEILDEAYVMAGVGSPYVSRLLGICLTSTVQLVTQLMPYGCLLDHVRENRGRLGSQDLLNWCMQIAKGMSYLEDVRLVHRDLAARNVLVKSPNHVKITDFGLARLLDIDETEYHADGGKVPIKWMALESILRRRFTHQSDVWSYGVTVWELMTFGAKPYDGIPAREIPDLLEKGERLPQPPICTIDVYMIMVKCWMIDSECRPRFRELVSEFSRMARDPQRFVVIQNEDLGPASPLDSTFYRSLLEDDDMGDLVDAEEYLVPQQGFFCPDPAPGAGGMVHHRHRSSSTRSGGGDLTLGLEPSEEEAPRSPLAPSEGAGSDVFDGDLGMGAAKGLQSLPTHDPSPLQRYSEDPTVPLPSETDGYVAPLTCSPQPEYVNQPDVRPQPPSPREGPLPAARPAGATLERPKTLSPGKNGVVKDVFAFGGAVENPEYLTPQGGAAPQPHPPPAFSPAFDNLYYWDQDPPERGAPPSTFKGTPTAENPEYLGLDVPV

Compound: CCN1CCN(c2ccc(Nc3cc(Nc4cccc5c4N(C(C)=O)CC5)ccn3)cc2)CC1 [Compound 1938]
- inhibition at 1 µM ([1]; read-out: % Inhibition Point 1): 5.53%
- inhibition at 1 µM ([1]; read-out: % Inhibition Point 2): 8%
- inhibition at 1 µM ([1]; read-out: % Inhibition mean): 6.59%
- inhibition at 1 µM ([2]; read-out: % Inhibition Point 1): 3%
- inhibition at 1 µM ([2]; read-out: % Inhibition Point 2): -4.63%
- inhibition at 1 µM ([2]; read-out: % Inhibition mean): -0.814%
- inhibition at 1 µM ([3]; read-out: % Inhibition Point 1): -2.48%
- inhibition at 1 µM ([3]; read-out: % Inhibition Point 2): 2.33%
- inhibition at 1 µM ([3]; read-out: % Inhibition mean): -0.0739%
- inhibition at 1 µM ([4]; read-out: % Inhibition Point 1): 2.18%
- inhibition at 1 µM ([4]; read-out: % Inhibition Point 2): 6%
- inhibition at 1 µM ([4]; read-out: % Inhibition mean): 4%
- inhibition at 1 µM ([5]; read-out: % Inhibition Point 1): 2.18%
- inhibition at 1 µM ([5]; read-out: % Inhibition Point 2): 2.77%
- inhibition at 1 µM ([5]; read-out: % Inhibition mean): 2.48%
- inhibition at 1 µM ([6]; read-out: % Inhibition Point 1): 0.87%
- inhibition at 1 µM ([6]; read-out: % Inhibition Point 2): 2.67%
- inhibition at 1 µM ([6]; read-out: % Inhibition mean): 1.77%
- inhibition at 1 µM ([7]; read-out: % Inhibition Point 1): 2.85%
- inhibition at 1 µM ([7]; read-out: % Inhibition Point 2): 5%
- inhibition at 1 µM ([7]; read-out: % Inhibition mean): 4%
- inhibition at 1 µM ([8]; read-out: % Inhibition Point 1): 5.5%
- inhibition at 1 µM ([8]; read-out: % Inhibition Point 2): 5.33%
- inhibition at 1 µM ([8]; read-out: % Inhibition mean): 5.41%
- inhibition at 1 µM ([9]; read-out: % Inhibition Point 1): 12%
- inhibition at 1 µM ([9]; read-out: % Inhibition Point 2): 14%
- inhibition at 1 µM ([9]; read-out: % Inhibition mean): 13%
